Assay results published in patent US9096599B2, “Spiroindoline compounds” (Intervet Inc., priority 2011, dated 2015).

Each compound was assayed on Ascaridia galli (L3) and Oesophagostumum dentatum (L3 and L4) larvae (assay: In vitro anthelmintic larval test, minimum effective concentration by microscopic examination). Settings: activity against one or both of the nematodes (A. galli L3; O. dentatum L3, L4), 96-well plates, 20 larvae per well, vs DMSO-control, read-out: minimum effective concentration (MEC).
Format: cell-based
Method: C: Biological Examples Efficacy Against Ascaridia galli and Oesophagostomum dentatum
Anthelmintic effects of compounds of this invention (numbers refer to compound numbers in Table I) were tested in vitro using gut-welling larval stages of two parasitic nematode species: Ascaridia galli (intestinal roundworm of chicken), larval stage 3 (“L3”); and Oesophagostumum dentatum (nodular worm of swine), larval stages 3 and 4 (respectively “L3” and “L4”). When conducting these experiments, DMSO-solutions of various concentrations of compounds of this invention were prepared and incubated in 96-well microtiter plates. The parasites were then distributed at 20 larvae per well. The anthelmintic effects were classified by microscopic examination. The microscopic examination included assessing mortality, damage, motility, progression of development, and neutral red uptake by the larvae in comparison to a DMSO-control.
`Cc1cc(C(=O)N2CC3(CCN(C/C=C/c4ccc(Cl)c(Cl)c4)CC3)c3cc(Sc4ccc(F)cc4)ccc32)cc(Cl)n1` [Compound 24, (2-chloro-6-methyl-4-pyridyl)-[1′-[(E)-3-(3,4-dichlorophenyl)allyl]-5-(4-fluorophenyl)sulfanyl-spiro[indoline-3,4′-piperidine]-1-yl]methanone] gave a minimal effective concentration of at most 50 µM.
Work on `O=C(c1ccnc(Cl)c1)N1CC2(CCN(C/C=C/c3ccc(F)cc3)CC2)c2cc(Sc3ccc(F)cc3)ccc21` [Compound 35, (2-chloro-4-pyridyl)-[1′-[(E)-3-(4-fluorophenyl)allyl]-5-(4-fluorophenyl)sulfanyl-spiro[indoline-3,4′-piperidine]-1-yl]methanone] yielded a minimal effective concentration of at most 50 µM.
Work on `Cc1ccc(/C=C/CN2CCC3(CC2)CN(C(=O)c2ccnc(Cl)c2)c2ccc(Sc4ccc(F)cc4)cc23)cc1C` [Compound 14, (2-chloro-4-pyridyl)-[1′-[(E)-3-(3,4-dimethylphenyl)allyl]-5-(4-fluorophenyl)sulfanyl-spiro[indoline-3,4′-piperidine]-1-yl]methanone] yielded a minimal effective concentration of at most 50 µM.
For `Cc1cc(C(=O)N2CC3(CCN(C/C=C/c4ccc(F)cc4)CC3)c3cc(Sc4ccc(F)cc4)ccc32)cc(Cl)n1` [Compound 36, (2-chloro-6-methyl-4-pyridyl)-[1′-[(E)-3-(4-fluorophenyl)allyl]-5-(4-fluorophenyl)sulfanyl-spiro[indoline-3,4′-piperidine]-1-yl]methanone], the minimal effective concentration was at most 50 µM.
With `O=C(c1ccnc(Cl)c1)N1CC2(CCN(C/C=C/c3ccc(Cl)cc3)CC2)c2cc(Sc3ccc(F)cc3)ccc21` [Compound 26, [1′-[(E)-3-(4-chlorophenyl)allyl]-5-(4-fluorophenyl)sulfanyl-spiro[indoline-3,4′-piperidine]-1-yl]-(2-chloro-4-pyridyl)methanone] the minimal effective concentration was at most 50 µM.
With `Cc1ccc(/C=C/CN2CCC3(CC2)CN(C(=O)c2ccnc(C)c2)c2ccc(Sc4ccc(F)cc4)cc23)c(C)c1` [Compound 22, [1′-[(E)-3-(2,4-dimethylphenyl)allyl]-5-(4-fluorophenyl)sulfanyl-spiro[indoline-3,4′-piperidine]-1-yl]-(2-methyl-4-pyridyl)methanone] the minimal effective concentration was at most 50 µM.
For `Cc1cc(C(=O)N2CC3(CCN(C/C=C/c4ccc(C)c(C)c4)CC3)c3cc(Sc4ccc(F)cc4)ccc32)cc(Cl)n1` [Compound 15, (2-chloro-6-methyl-4-pyridyl)-[1′-[(E)-3-(3,4-dimethylphenyl)allyl]-5-(4-fluorophenyl)sulfanyl-spiro[indoline-3,4′-piperidine]-1-yl]methanone], the minimal effective concentration was at most 50 µM.
Work on `Cc1ccc(/C=C/CN2CCC3(CC2)CN(C(=O)c2cc(C)nc(Cl)c2)c2ccc(Sc4ccc(F)cc4)cc23)cc1` [Compound 18, (2-chloro-6-methyl-4-pyridyl)-[5-(4-fluorophenyl)sulfanyl-1′-[(E)-3-(p-tolyl)allyl]spiro[indoline-3,4′-piperidine]-1-yl]methanone] yielded a minimal effective concentration of at most 50 µM.
For `O=C(c1ccnc(Cl)c1)N1CC2(CCN(C/C=C/c3ccc(F)c(F)c3)CC2)c2cc(Sc3ccc(F)cc3)ccc21` [Compound 32, (2-chloro-4-pyridyl)-[1′-[(E)-3-(3,4-difluorophenyl)allyl]-5-(4-fluorophenyl)sulfanyl-spiro[indoline-3,4′-piperidine]-1-yl]methanone], the minimal effective concentration was at most 50 µM.
`Cc1cc(C(=O)N2CC3(CCN(C/C=C/c4ccc(C)c(C)c4)CC3)c3cc(Sc4ccc(F)cc4)ccc32)ccn1` [Compound 16, [1′-[(E)-3-(3,4-dimethylphenyl)allyl]-5-(4-fluorophenyl)sulfanyl-spiro[indoline-3,4′-piperidine]-1-yl]-(2-methyl-4-pyridyl)methanone] showed a minimal effective concentration of at most 50 µM.
`O=C(c1ccnc(Cl)c1)N1CC2(CCN(C/C=C/c3ccc(F)cc3F)CC2)c2cc(Sc3ccc(F)cc3)ccc21` [Compound 38, (2-chloro-4-pyridyl)-[1′-[(E)-3-(2,4-difluorophenyl)allyl]-5-(4-fluorophenyl)sulfanyl-spiro[indoline-3,4′-piperidine]-1-yl]methanone] gave a minimal effective concentration of at most 50 µM.
Compound `Cc1cc(C(=O)N2CC3(CCN(C/C=C/c4ccc(F)cc4)CC3)c3cc(Sc4ccc(F)cc4)ccc32)ccn1` [Compound 37, [1′-[(E)-3-(4-fluorophenyl)allyl]-5-(4-fluorophenyl)sulfanyl-spiro[indoline-3,4′-piperidine]-1-yl]-(2-methyl-4-pyridyl)methanone] has a minimal effective concentration of at most 50 µM.
In the case of `Cc1cc(C(=O)N2CC3(CCN(C/C=C/c4ccc(F)cc4F)CC3)c3cc(Sc4ccc(F)cc4)ccc32)cc(Cl)n1` [Compound 39, (2-chloro-6-methyl-4-pyridyl)-[1′-[(E)-3-(2,4-difluorophenyl)allyl]-5-(4-fluorophenyl)sulfanyl-spiro[indoline-3,4′-piperidine]-1-yl]methanone], the minimal effective concentration is reported as at most 50 µM.
Compound `Cc1cc(C(=O)N2CC3(CCN(C/C=C/c4ccc(F)c(F)c4)CC3)c3cc(Sc4ccc(F)cc4)ccc32)cc(Cl)n1` [Compound 33, (2-chloro-6-methyl-4-pyridyl)-[1′-[(E)-3-(3,4-difluorophenyl)allyl]-5-(4-fluorophenyl)sulfanyl-spiro[indoline-3,4′-piperidine]-1-yl]methanone] has a minimal effective concentration of at most 50 µM.
`Cc1cc(C(=O)N2CC3(CCN(C/C=C/c4ccc(F)c(F)c4)CC3)c3cc(Sc4ccc(F)cc4)ccc32)ccn1` [Compound 34, [1′-[(E)-3-(3,4-difluorophenyl)allyl]-5-(4-fluorophenyl)sulfanyl-spiro[indoline-3,4′-piperidine]-1-yl]-(2-methyl-4-pyridyl)methanone] was tested, and the minimal effective concentration was at most 50 µM.
`Cc1ccc(/C=C/CN2CCC3(CC2)CN(C(=O)c2cc(C)nc(Cl)c2)c2ccc(Sc4ccc(F)cc4)cc23)c(C)c1` [Compound 21, (2-chloro-6-methyl-4-pyridyl)-[1′-[(E)-3-(2,4-dimethylphenyl)allyl]-5-(4-fluorophenyl)sulfanyl-spiro[indoline-3,4′-piperidine]-1-yl]methanone] gave a minimal effective concentration of at most 50 µM.
`Cc1cc(C(=O)N2CC3(CCN(C/C=C/c4ccc(Cl)cc4Cl)CC3)c3cc(Sc4ccc(F)cc4)ccc32)cc(Cl)n1` [Compound 30, (2-chloro-6-methyl-4-pyridyl)-[1′-[(E)-3-(2,4-dichlorophenyl)allyl]-5-(4-fluorophenyl)sulfanyl-spiro[indoline-3,4′-piperidine]-1-yl]methanone] showed a minimal effective concentration of at most 50 µM.
`Cc1ccc(/C=C/CN2CCC3(CC2)CN(C(=O)c2ccnc(Cl)c2)c2ccc(Sc4ccc(F)cc4)cc23)cc1` [Compound 17, (2-chloro-4-pyridyl)-[5-(4-fluorophenyl)sulfanyl-1′-[(E)-3-(p-tolyl)allyl]spiro[indoline-3,4′-piperidine]-1-yl]methanone] showed a minimal effective concentration of at most 50 µM.
Work on `Cc1cc(C(=O)N2CC3(CCN(C/C=C/c4ccc(Cl)c(Cl)c4)CC3)c3cc(Sc4ccc(F)cc4)ccc32)ccn1` [Compound 25, [1′-[(E)-3-(3,4-dichlorophenyl)allyl]-5-(4-fluorophenyl)sulfanyl-spiro[indoline-3,4′-piperidine]-1-yl]-(2-methyl-4-pyridyl)methanone] yielded a minimal effective concentration of at most 50 µM.
With `O=C(c1ccnc(Cl)c1)N1CC2(CCN(C/C=C/c3ccc(Cl)cc3Cl)CC2)c2cc(Sc3ccc(F)cc3)ccc21` [Compound 29, (2-chloro-4-pyridyl)-[1′-[(E)-3-(2,4-dichlorophenyl)allyl]-5-(4-fluorophenyl)sulfanyl-spiro[indoline-3,4′-piperidine]-1-yl]methanone] the minimal effective concentration was at most 50 µM.
Work on `Cc1cc(C(=O)N2CC3(CCN(C/C=C/c4ccc(F)cc4F)CC3)c3cc(Sc4ccc(F)cc4)ccc32)ccn1` [Compound 40, [1′-[(E)-3-(2,4-difluorophenyl)allyl]-5-(4-fluorophenyl)sulfanyl-spiro[indoline-3,4′-piperidine]-1-yl]-(2-methyl-4-pyridyl)methanone] yielded a minimal effective concentration of at most 50 µM.
`Cc1cc(C(=O)N2CC3(CCN(C/C=C/c4ccc(Cl)cc4)CC3)c3cc(Sc4ccc(F)cc4)ccc32)cc(Cl)n1` [Compound 27, (2-chloro-6-methyl-4-pyridyl)-[1′-[(E)-3-(4-chlorophenyl)allyl]-5-(4-fluorophenyl)sulfanyl-spiro[indoline-3,4′-piperidine]-1-yl]methanone] gave a minimal effective concentration of at most 50 µM.
Compound `Cc1cc(C(=O)N2CC3(CCN(C/C=C/c4ccc(Cl)cc4Cl)CC3)c3cc(Sc4ccc(F)cc4)ccc32)ccn1` [Compound 31, [1′-[(E)-3-(2,4-dichlorophenyl)allyl]-5-(4-fluorophenyl)sulfanyl-spiro[indoline-3,4′-piperidine]-1-yl]-(2-methyl-4-pyridyl)methanone] has a minimal effective concentration of at most 50 µM.
In the case of `Cc1cc(C(=O)N2CC3(CCN(C/C=C/c4ccc(Cl)cc4)CC3)c3cc(Sc4ccc(F)cc4)ccc32)ccn1` [Compound 28, [1′-[(E)-3-(4-chlorophenyl)allyl]-5-(4-fluorophenyl)sulfanyl-spiro[indoline-3,4′-piperidine]-1-yl]-(2-methyl-4-pyridyl)methanone], the minimal effective concentration is reported as at most 50 µM.

Same assay, conditions: read-out: minimum effective concentration (MEC)
For `Cc1cc(C(=O)N2CC3(CCN(C/C=C/c4ccccc4)CC3)c3cc(Sc4ccc(F)cc4)ccc32)ccn1` [Compound 13, [1′-[(E)-cinnamyl]-5-(4-fluorophenyl)sulfanyl-spiro[indoline-3,4′-piperidine]-1-yl]-(2-methyl-4-pyridyl)methanone], the minimal effective concentration was at most 50 µM.
Compound `Cc1cc(C(=O)N2CC3(CCN(C/C=C/c4ccccc4)CC3)c3cc(Sc4ccc(F)cc4)ccc32)cc(Cl)n1` [Compound 12, (2-chloro-6-methyl-4-pyridyl)-[1′-[(E) -cinnamyl]-5-(4-fluorophenyl)sulfanyl-spiro[indoline-3,4′-piperidine]-1-yl]methanone] has a minimal effective concentration of at most 50 µM.
